Reference: ChEMBL document CHEMBL1201862, “PubChem BioAssay data set” (2004)
Active and inactive are the calls of the source.

What was measured:
[1] = target: T1, Sphingosine 1-phosphate receptor 4 (Homo sapiens, UniProt O95977); assay: Fluorescence dose response cell-based high throughput screening assay for antagonists of the Sphingosine 1-Phosphate Receptor 4 (S1P4). [Related pubchem assays: 1524 (Confirmation in triplicates.), 1510 (Primary screen.)]; format: functional
T1 sequence (O95977 whole entry): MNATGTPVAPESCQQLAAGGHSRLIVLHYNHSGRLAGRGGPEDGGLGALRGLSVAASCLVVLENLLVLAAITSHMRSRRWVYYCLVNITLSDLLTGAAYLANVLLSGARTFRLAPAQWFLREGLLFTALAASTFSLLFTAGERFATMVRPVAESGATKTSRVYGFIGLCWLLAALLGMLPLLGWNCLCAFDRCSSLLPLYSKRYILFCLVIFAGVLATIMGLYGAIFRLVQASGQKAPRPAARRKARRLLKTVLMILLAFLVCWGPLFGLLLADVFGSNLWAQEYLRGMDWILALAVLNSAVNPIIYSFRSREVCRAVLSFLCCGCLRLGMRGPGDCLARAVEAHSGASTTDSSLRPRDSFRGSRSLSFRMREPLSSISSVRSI

Protein RecA = target: T2, Protein RecA (Mycobacterium tuberculosis, UniProt P9WHJ3); assay: Fluorescence Cell-Free Homogeneous Dose Retest to Identify Inhibitors of RecA-Intein Splicing Activity. [Related pubchem assays (depositor defined):AID2097, AID2223, AID489010, AID492950]; format: functional
T2 sequence (P9WHJ3 whole entry): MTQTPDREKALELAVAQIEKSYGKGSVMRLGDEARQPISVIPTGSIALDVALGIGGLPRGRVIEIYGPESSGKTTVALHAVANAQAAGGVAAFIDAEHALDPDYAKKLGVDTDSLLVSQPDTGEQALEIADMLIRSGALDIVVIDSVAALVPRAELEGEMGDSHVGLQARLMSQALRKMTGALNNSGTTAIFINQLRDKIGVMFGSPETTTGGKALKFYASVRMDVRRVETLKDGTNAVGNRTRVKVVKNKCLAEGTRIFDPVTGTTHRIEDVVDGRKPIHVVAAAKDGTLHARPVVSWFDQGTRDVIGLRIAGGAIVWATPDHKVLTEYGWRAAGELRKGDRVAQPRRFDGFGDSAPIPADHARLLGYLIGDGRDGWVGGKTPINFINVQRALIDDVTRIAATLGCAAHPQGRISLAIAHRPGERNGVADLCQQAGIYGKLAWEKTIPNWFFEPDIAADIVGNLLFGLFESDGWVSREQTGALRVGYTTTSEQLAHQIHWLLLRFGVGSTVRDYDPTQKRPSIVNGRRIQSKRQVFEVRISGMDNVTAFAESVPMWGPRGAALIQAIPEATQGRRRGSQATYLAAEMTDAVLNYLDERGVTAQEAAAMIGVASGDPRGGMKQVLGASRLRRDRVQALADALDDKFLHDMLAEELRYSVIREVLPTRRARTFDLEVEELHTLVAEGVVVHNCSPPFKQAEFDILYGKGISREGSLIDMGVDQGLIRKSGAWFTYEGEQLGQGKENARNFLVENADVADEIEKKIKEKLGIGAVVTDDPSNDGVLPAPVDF

INS1 = assay: INS-1E survival protection against cytokine death – cell-based, luminescence, retest, dose response (AID 449756); format: functional; settings: Rattus norvegicus;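 further: cell death triggered by IL-1 beta plus TNF-alpha plus IFN-gamma mixture; protective hits raise ATP signal compared with cytokine alone wells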
[2] = Intein inhibitors as potential Tuberculosis drugs, a cytotoxicity screen. [Related pubchem assays (depositor defined):AID2221, AID2223, AID434968, AID435010, AID449749, AID449750, AID489010]; format: functional
[3] = target: Sphingosine 1-phosphate receptor 1 (Homo sapiens, UniProt P21453); format: functional;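 further: Tango beta-arrestin reporter U2OS cells stimulated with S1P near its EC80; inhibitor potency meaning antagonism of receptor activation by the natural agonist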
[4] = target: T3, Replicative DNA helicase DnaB (Mycobacterium tuberculosis, UniProt P9WMR3); assay: DnaB intein splicing inhibitors, dose response, biochemical, cell-free fluorescence (AID 449749); format: functional
T3 sequence (P9WMR3 whole entry): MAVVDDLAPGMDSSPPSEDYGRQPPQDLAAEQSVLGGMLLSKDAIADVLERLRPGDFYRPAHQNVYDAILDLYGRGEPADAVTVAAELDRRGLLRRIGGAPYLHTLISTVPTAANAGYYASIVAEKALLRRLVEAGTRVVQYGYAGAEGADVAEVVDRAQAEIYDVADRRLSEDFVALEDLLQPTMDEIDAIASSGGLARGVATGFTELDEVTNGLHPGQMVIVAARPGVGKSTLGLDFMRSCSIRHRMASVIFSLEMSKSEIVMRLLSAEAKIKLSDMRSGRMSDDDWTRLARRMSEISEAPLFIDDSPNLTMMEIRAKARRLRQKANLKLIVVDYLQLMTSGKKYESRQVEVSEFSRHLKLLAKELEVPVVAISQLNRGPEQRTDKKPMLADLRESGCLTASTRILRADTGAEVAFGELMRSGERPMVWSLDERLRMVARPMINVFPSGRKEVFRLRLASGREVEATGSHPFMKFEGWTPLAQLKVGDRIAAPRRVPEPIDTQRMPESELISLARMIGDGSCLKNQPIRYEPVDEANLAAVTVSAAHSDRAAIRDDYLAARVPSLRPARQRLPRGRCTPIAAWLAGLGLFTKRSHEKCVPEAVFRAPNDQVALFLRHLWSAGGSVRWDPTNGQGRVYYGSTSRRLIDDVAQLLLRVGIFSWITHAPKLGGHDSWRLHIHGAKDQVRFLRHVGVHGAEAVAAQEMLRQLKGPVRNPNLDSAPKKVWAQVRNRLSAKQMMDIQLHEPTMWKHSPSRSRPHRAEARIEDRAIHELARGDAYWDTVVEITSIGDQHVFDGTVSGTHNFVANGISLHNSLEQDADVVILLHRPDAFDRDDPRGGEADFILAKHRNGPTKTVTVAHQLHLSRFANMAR

Vero = assay: mammalian cell viability reduction – secondary assay, cytotoxicity control for West Nile virus antiviral project, dose response (AID 1650); format: functional; settings: Chlorocebus sabaeus
[5] = target: T4, Voltage-gated N-type calcium channel alpha-1B subunit/Amyloid beta A4 precursor protein-binding family A member 1 (Homo sapiens, UniProt Q00975+Q02410); format: protein assay
[6] = target: T4, Voltage-gated N-type calcium channel alpha-1B subunit/Amyloid beta A4 precursor protein-binding family A member 1; format: protein assay; remark: listed apart in the source
Hexokinase HKDC1 = target: T5, Hexokinase HKDC1 (Homo sapiens, UniProt Q2TB90); assay: activation of HKDC1 glucose phosphorylation – biochemical, W721R variant, dose response (AID 504730); format: functional
T5 sequence (Q2TB90 whole entry): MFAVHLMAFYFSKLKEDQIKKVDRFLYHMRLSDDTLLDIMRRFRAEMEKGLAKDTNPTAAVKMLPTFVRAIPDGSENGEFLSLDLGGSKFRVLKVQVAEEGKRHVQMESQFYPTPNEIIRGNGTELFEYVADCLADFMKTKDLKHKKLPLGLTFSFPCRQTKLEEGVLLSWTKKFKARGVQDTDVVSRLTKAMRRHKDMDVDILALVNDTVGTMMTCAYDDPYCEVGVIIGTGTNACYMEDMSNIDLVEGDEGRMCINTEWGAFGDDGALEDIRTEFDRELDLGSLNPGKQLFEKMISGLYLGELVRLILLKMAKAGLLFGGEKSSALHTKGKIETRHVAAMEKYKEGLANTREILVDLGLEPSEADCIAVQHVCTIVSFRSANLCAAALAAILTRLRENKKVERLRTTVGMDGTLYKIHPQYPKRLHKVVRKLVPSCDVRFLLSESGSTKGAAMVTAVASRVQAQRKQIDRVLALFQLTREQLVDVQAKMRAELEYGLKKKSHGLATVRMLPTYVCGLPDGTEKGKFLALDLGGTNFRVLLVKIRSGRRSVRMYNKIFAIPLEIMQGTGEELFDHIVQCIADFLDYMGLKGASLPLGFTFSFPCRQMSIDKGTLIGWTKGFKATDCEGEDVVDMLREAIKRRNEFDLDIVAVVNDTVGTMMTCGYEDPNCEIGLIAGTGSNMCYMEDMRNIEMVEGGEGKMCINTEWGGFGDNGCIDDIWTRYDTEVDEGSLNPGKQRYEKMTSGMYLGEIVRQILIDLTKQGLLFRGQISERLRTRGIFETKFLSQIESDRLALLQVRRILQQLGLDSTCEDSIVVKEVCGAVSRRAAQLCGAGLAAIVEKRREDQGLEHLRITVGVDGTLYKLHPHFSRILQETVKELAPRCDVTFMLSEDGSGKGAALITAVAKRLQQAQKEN

Hexokinase-1 = target: T6, Hexokinase-1 (Homo sapiens, UniProt P19367); assay: HK1 enzyme activation by HKDC1 hits – biochemical, selectivity assay for HKDC1 activator project, dose response (AID 504762); format: functional
T6 sequence (P19367 whole entry): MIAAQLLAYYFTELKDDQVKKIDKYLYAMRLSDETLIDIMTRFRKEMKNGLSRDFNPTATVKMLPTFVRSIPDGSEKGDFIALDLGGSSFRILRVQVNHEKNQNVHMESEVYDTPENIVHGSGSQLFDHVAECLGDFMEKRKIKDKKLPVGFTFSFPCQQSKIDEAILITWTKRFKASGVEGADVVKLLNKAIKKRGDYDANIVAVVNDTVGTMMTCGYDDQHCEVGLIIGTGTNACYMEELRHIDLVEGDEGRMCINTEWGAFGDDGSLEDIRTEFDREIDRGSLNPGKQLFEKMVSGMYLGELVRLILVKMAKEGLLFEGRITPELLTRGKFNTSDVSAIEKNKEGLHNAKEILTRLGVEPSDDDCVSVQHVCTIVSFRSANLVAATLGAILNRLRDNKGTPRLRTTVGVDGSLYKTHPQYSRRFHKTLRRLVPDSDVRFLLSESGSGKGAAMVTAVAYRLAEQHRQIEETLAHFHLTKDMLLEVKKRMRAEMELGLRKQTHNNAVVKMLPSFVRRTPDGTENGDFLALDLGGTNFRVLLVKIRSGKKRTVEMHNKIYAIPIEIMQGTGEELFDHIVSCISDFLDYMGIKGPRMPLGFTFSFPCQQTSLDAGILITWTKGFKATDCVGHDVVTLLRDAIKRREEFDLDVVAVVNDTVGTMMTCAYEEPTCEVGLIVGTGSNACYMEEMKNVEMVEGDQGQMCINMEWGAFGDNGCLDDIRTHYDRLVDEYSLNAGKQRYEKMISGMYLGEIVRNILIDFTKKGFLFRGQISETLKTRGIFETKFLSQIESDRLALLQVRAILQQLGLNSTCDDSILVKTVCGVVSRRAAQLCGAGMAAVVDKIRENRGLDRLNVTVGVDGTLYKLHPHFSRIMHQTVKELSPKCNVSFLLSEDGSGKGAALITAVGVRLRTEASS

[7] = target: Induced myeloid leukemia cell differentiation protein Mcl-1 (Homo sapiens, UniProt Q07820); format: functional
[8] = target: T7, Runt-related transcription factor 1/Core-binding factor subunit beta (Homo sapiens, UniProt Q01196+Q13951); assay: Runt domain/CBFb-SMMHC interaction disruptors – biochemical, TR-FRET (AID 1438); format: protein assay
[9] = target: T7, Runt-related transcription factor 1/Core-binding factor subunit beta; assay: disruptors of Runt domain/CBFb-SMMHC interaction – biochemical, FRET, Cerulean-Runt, Venus-CBFb-SMMHC, uHTS, […] (AID 1434); format: protein assay
[10] = target: Delta-type opioid receptor (Homo sapiens, UniProt P41143); assay: SAR Analysis of Antagonists of the DOR Receptor using an Image-Based Assay - Set 3. [Related pubchem assays (depositor defined):AID1777, AID1785]; format: functional;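 further: U2OS cells expressing DOR1 and beta-arrestin GFP stimulated with 100 nM SNC80; imaging of GFP-tagged beta-arrestin moving into spots after receptor activation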
Mu-type opioid receptor = Mu-type opioid receptor (Homo sapiens, UniProt P35372); assay: SAR Analysis of Antagonists of the MOR Receptor using an Image-Based Assay - Set 3. [Related pubchem assays (depositor defined):AID1777, AID1785, AID1786, AID1966, AID2133, AID2136, AID2284, AID2285, AID2420]; format: functional
[11] = target: T8, Kappa-type opioid receptor (Homo sapiens, UniProt P41145); assay: SAR analysis of Antagonists of the Kappa Opioid Receptor (KOR) using an Image-Based Assay - Set 3. [Related pubchem assays (depositor defined):AID1777, AID1785]; format: functional
[12] = target: T8, Kappa-type opioid receptor; assay: SAR analysis of small molecule antagonists of the kappa opioid receptor via a luminescent beta-arrestin assay - Set 3. [Related pubchem assays (depositor defined):AID1777, AID1778, AID1785, AID1786, AID1966, AID2133, AID2136, AID2285, AID2495]; format: functional
ORF 73 = ORF 73 (Human herpesvirus 8, UniProt O40947); assay: KSHV LANA DNA-binding disruption – biochemical, fluorescence polarization, cherry-picked samples, dose response (AID 504725); parameters: species or system Human gammaherpesvirus 8;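 further: fluorescence polarization of a labeled DNA duplex reporting LANA DNA binding; potency is for inhibitors that block LANA binding to the DNA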
Beta-lactamase [13] = target: Beta-lactamase (Salmonella choleraesuis (strain SC-B67), UniProt Q5J463)
Troponin, cardiac muscle = Troponin, cardiac muscle (Homo sapiens, UniProt P19429+P45379+P63316); assay: Fluorescence-based biochemical high throughput dose response assay for activators of the calcium sensitivity of cardiac Regulated Thin Filaments (RTF). [Related pubchem assays (depositor defined):AID493008, AID493018, AID504382, AID504383]; format: protein-complex assay
HeLa = assay: viability loss in HeLa cells – cell-based, 24 h, cherry-picked samples, cytotoxicity control, dose response (AID 504726); format: functional; settings: Homo sapiens;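 further: potency for cytotoxicity as loss of luminescence signal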
Beta-lactamase [14] = target: Beta-lactamase (Pseudomonas aeruginosa, UniProt Q79MP6);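 further: biochemical dose-response test of metallo-beta-lactamase enzyme inhibition, read out by epi-absorbance; purified recombinant IMP-1 metallo-beta-lactamase with nitrocefin as substrate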

For `Cc1c(/C=N/Nc2nc3ccccc3[nH]2)c2ccccc2n1C`, the IC50 [1] was 1.76 µM (active), the EC50 (Protein RecA) was 1.99 µM (active) and the AC50 (INS1) was 4.83 µM (active). The CC50 [2] was 18.1 µM (active), the IC50 [3] was 6.78 µM (active) and the AC50 [4] was 3.82 µM (active). For the same compound, the CC50 (Vero) was 39.2 µM (active).

In the case of `CC(=O)Nc1ccc(C2=NN=C(Nc3ccc(S(=O)(=O)N4CCOCC4)cc3)SC2)cc1`, the IC50 [5] is reported as 13.8 µM (active), the IC50 [6] is reported as > 50 µM (inactive) and the EC50 (Hexokinase HKDC1) is reported as 7.92 µM (active). For the same compound, the EC50 (Hexokinase-1) was 7.65 µM (active) and the IC50 [7] was 1.61 µM (active).

For `COc1cccc(-c2nc(-c3ccc4c(c3)-c3ccccc3S4(=O)=O)c(-c3ccccc3)[nH]2)c1OC`, the IC50 [8] was > 100 µM (inactive) and the IC50 [9] was 33.6 µM (active).

For `CCc1ccc(S(=O)(=O)NCc2ccc(C(=O)NCCN(C)[C@@H](C)c3ccccc3)cc2)cc1`, the IC50 [10] was > 32 µM (inactive), the IC50 (Mu-type opioid receptor) was > 32 µM (inactive) and the IC50 [11] was 0.749 µM (active). For the same compound, the IC50 [12] was 3.75 µM (active).

In the case of `O=[N+]([O-])c1ccc(N2CCCCCC2)c2nonc12`, the AC50 (ORF 73) is reported as 54.6 µM (active), the IC50 (Beta-lactamase [13]) is reported as 22.4 µM (inactive) and the EC50 (Troponin, cardiac muscle) is reported as 0.413 µM (active). The AC50 (HeLa) was 69.4 µM (active) and the IC50 (Beta-lactamase [14]) was > 59.6 µM (inactive).
